This is an account of results in patent publication US10612071B2, “Method of measuring the deleterious effects of non-caloric artificial sweeteners on enzymatic hydrolysis of sucrose measured in real time” (California State University, Fresno, priority 2016, dated 2020).

“Also recorded” adds a separate entry of the source.

Format in all cases: biochemical, S. cerevisiae
The target of data set [1] is T1, Invertase (EC 3.2.1.26, β-fructofuranosidase) (Saccharomyces cerevisiae, UniProt P00724).
T1 construct: purchased Sigma-Aldrich
Put plainly: Real-time 1H-NMR (qNMR) progress curve analysis of invertase-catalysed sucrose hydrolysis, Lambert-W fit. The conditions noted are these: for β-anomer of glucose formed: in the presence of sucralose (FIG. 5); for α-anomer of glucose formed: in the presence of sucralose (FIG. 5, 50 mM each). The text has this: Equation [5], derived from Equation [2], relates the substrate concentration at any time ([S]) to its initial concentration ([S]0), the Michaelis-Menten kinetic parameters Vmax and KM. Equation [5] is used to fit the real time experimental data obtained for enzyme kinetics using the analysis code written using R-Statistical environment (R Core Team 2014).
(§1) Invertase (EC 3.2.1.26, β-fructofuranosidase, S. cerevisiae) was purchased from Sigma-Aldrich with a specific activity of >300 u/mg of solid (pH 4.6, 303 K).
Two standard samples were made in standard 5 mm NMR tubes to set up the NMR parameter.
All NMR kinetics solutions were made in an Eppendorf tube with a volume of 550 μL prior to adding 100 μL of invertase into the Eppendorf tube then transferring 600 μL of the solution into a NMR tube. The 100 μL invertase solution was added into the Eppendorf tube when the NMR kinetics experiment was ready to start. A timer was set at the beginning of the addition of the invertase solution in order to account for the delay time (the time before the collection of the NMR spectra) as this is a crucial part of the latter calculation.
^1H-NMR time-course data were collected in real time by qNMR (Vairan-Agilent, VNMRS system) and the kinetic data were subsequently processed using a non-linear least square fit procedure by using the Lambert-W function. This method was applied to determine the effect on the enzyme kinetics of hydrolysis, a fundamental step in converting the sucrose to glucose and fructose. Experimental results obtained using the direct real-time measurements were validated using a glucometer based approach.
The spectrometer software is used to find the integration under each peak of the sucrose (5.41 ppm) and TSP (0.0 ppm). The concentration of the sucrose peak is calculated with reference to the known concentration of TSP. If multiple experiments are performed, averages and standard deviations of the integrations of the trials at each temperature is calculated. A two-column excel or text (tab limited format) with X=Time and Y=[S] is produced as the input to the R-program. The written code utilizes the following external libraries: spatstat and gsl (to implement functions such as LambertW function), xtable (for table manipulations) and ggplot2 (to make plots (optional)). The R-code reads the input file and creates a data fit, statistics and plot with the experimental and fitted values. Typically the procedure works with a minimum of 15 time points sampled uniformly over the experimental time period chosen and it utilizes a non-linear least square fitting procedure. In addition to generating a plot (FIG. 10A), the code generates a file in picture format (.png) and a tab-limited text file that can be imported into other plotting routines. The statistical parameters of the fit (FIG. 10B) are also available in a tabular form for reporting purposes, which includes the fitted values (Coef.), standard error of the fit, t-statistics and p-value for each of the parameters. If the signal has not decayed to zero, an additional parameter (FIG. 10B) can be used as an offset.

The target of data set [2] is T1, Invertase (EC 3.2.1.26, β-fructofuranosidase). Put plainly: Glucometer-based Michaelis-Menten kinetics of invertase-catalysed sucrose hydrolysis. The conditions noted are these: for reaction velocity of the sucrose: sucralose 20 mM or lower (FIG. 11).
Description: as §1

Substrate in data set [3]: OC[C@H]1O[C@@](CO)(O[C@H]2O[C@H](CO)[C@@H](O)[C@H](O)[C@H]2O)[C@@H](O)[C@@H]1O
Put plainly: Real-time 1H-NMR (qNMR) progress curve analysis of invertase-catalysed sucrose hydrolysis, Lambert-W fit. The conditions noted are these: 30.0 °C.

Setting [4] is: other: Average of three trials, sucrose 42 mM, no sucralose.
The mark [5] stands for this setting: other: Trial 1, sucrose 42 mM, no sucralose.
Where [6] appears, read: other: Trial 2, sucrose 42 mM, no sucralose.
Setting [7] is: other: Trial 3, sucrose 42 mM, no sucralose.
[8] abbreviates: other: no sucralose (0 mM), sucrose 40 mM, sucrose:sucralose 1:0.

For orientation: Vmax means the rate approached at saturating substrate. With `OC[C@H]1O[C@H](O[C@]2(CCl)O[C@H](CCl)[C@@H](O)[C@@H]2O)[C@H](O)[C@@H](O)[C@H]1Cl` [sucralose], the entries for the “decrease of the maximal velocity (Vmax)” value in data set [1] (1:2 ratio of sucrose:sucralose) and in data set [1] (addition of sucralose (50 mM)) were approximately 33% and 37%, respectively. Further, the “enzyme catalytic activity inhibited” value in data set [1] (1:2 ratio of sucrose:sucralose) is 50%. Also, the “increase of the KM value” in data set [1] (1:2 ratio of sucrose:sucralose) is approximately 50%; in data set [1] (sucralose 50 mM), “more than 20%”. Further, the “β-anomer of glucose formed” value in data set [1] (after 20 minutes) is “about 7 mM”; in data set [1] (after 60 minutes) it was “about 10 mM”; in data set [1] (after 120 minutes), “about 17 mM”. Further, the sucrose concentration remaining result in data set [1] (after 60 minutes of enzymatic conversion, in the presence of sucralose, starting sucrose 50 mM (FIG. 4)) is listed as “about 15 mM”. Also, the “α-anomer of glucose formed” value in data set [1] (after 60 minutes) is “about 22 mM”; in data set [1] (after 120 minutes) it was “about 22.5 mM”. Moreover, the Vmax is 1.87 µM/min in data set [1] (in the presence of sucralose, FIG. 4 (equimolar sucrose:sucralose, ~50 mM each)); 2.71 ± 0.04 µM/min in data set [1] (sucralose 1 mM, sucrose 40 mM (40:1)); 2.95 ± 0.04 µM/min in data set [1] (sucralose 5 mM, sucrose 40 mM (8:1)); 2.61 ± 0.03 µM/min in data set [1] (sucralose 10 mM, sucrose 40 mM (4:1)); 2.49 ± 0.02 µM/min in data set [1] (sucralose 20 mM, sucrose 40 mM (2:1)); 2.25 ± 0.02 µM/min in data set [1] (sucralose 40 mM, sucrose 40 mM (1:1)). Moreover, the Vmax in data set [1] (sucralose 60 mM, sucrose 40 mM (1:1.5)) is 1.87 ± 0.02 µM/min; in data set [1] (sucralose 80 mM, sucrose 40 mM (1:2)), 1.72 ± 0.02 µM/min. Moreover, in data set [1] (regression line, FIG. 12B), the “decrease of Vmax per unit increase of sucralose” value worked out at 6.54 ± 0.03 µM/min. Besides, the “decrease of catalytic efficiency of the enzyme per unit increase of sucralose (in mM)” value in data set [1] (regression line, FIG. 12C) is listed as 152.1 mM^2/min. In data set [1] (sucralose 50 mM), the “reduction of the enzymatic activity of the invertase” value came to 20%. Also, the “conversion of sucralose by enzymatic hydrolysis (invertase)” value in data set [1] (sucralose concentration during sucrose hydrolysis) is recorded as “not affected by enzymatic hydrolysis; also recorded: not converted”. Also, the “inhibition (substrate inhibition model curve)” value in data set [2] (molar ratio of sucrose to sucralose 1:0.25 (FIG. 13)) is “more than 50%”. In addition, the “reaction velocity of the sucrose” value in data set [2] (substrate concentration 0.1 M) and in data set [2] (substrate concentration about 0.27 M) was “over 0.4 M/min” throughout.
`OC[C@H]1O[C@@](CO)(O[C@H]2O[C@H](CO)[C@@H](O)[C@H](O)[C@H]2O)[C@@H](O)[C@@H]1O` [sucrose]: the maximum rate (Vmax) in data set [1] (no sucralose (0 mM), sucrose 40 mM, sucrose:sucralose 1:0) was determined as 2.57 ± 0.03 µM/min.

B1: Invertase (EC 3.2.1.26, β-fructofuranosidase) (Saccharomyces cerevisiae S288C) (protein)
chain: SMTNETSDRPLVHFTPNKGWMNDPNGLWYDEKDAKWHLYFQYNPNDTVWGTPLFWGHATSDDLTNWEDQPIAIAPKRNDSGAFSGSMVVDYNNTSGFFNDTIDPRQRCVAIWTYNTPESEEQYISYSLDGGYTFTEYQKNPVLAANSTQFRDPKVFWYEPSQKWIMTAAKSQDYKIEIYSSDDLKSWKLESAFANEGFLGYQYECPGLIEVPTEQDPSKSYWVMFISINPGAPAGGSFNQYFVGSFNGTHFEAFDNQSRVVDFGKDYYALQTFFNTDPTYGSALGIAWASNWEYSAFVPTNPWRSSMSLVRKFSLNTEYQANPETELINLKAEPILNISNAGPWSRFATNTTLTKANSYNVDLSNSTGTLEFELVYAVNTTQTISKSVFADLSLWFKGLEDPEEYLRMGFEVSASSFFLDRGNSKVKFVKENPYFTNRMSVNNQPFKSENDLSYYKVYGLLDQNILELYFNDGDVVSTNTYFMTTGNALGSVNMTTGVDNLFYIDKFQVREVK
notes: purchased Sigma-Aldrich
Usually Km stands for the concentration of substrate that gives half-maximal velocity. For the molecule B1, the Km in data set [3] (setting [4]) is 38.57 ± 3.72 mM; in data set [3] (setting [5]) it was 34.69 ± 3.96 mM; in data set [3] (setting [6]), 43.59 ± 11.90 mM; in data set [3] (setting [7]), 37.44 ± 7.79 mM; in data set [3] (setting [8]), 50.60 mM. In addition, the Vmax in data set [3] (setting [4]) turned out to be 2.54 ± 0.18 µM/min; in data set [3] (setting [5]) it was 2.34 ± 0.18 µM/min; in data set [3] (setting [6]), 2.77 ± 0.54 µM/min; in data set [3] (setting [7]), 2.51 ± 0.36 µM/min; in data set [3] (setting [8]), 2.57 ± 0.03 µM/min.
